pEC50, pIC50, pKi: −log10 of the molar value.
Molecular target: T1, peripheral benzodiazepine receptor (PBR) (Rattus norvegicus, UniProt P16257)
T1 construct: CBR and PBR were obtained from rat brain and heart membrane-fractions, respectively; from tissue; host or cells: Wistar rat heart membranes
Assay: In-house PBR binding assay ([3H]PK11195, rat heart mitochondrial membranes)

CC(C)=CCC/C(C)=C/CC/C(C)=C/CN1C(=O)c2cccc(O)c2Nc2c(O)cc(O)cc21 [Compound 1, 10-farnesyl-4,6,8-trihydroxy-5,10-dihydrodibenzo[b,e][1,4]diazepin-11-one]
pEC50: 5.55
PBR binding (in words): bind the PBR
pKi (Ki=EC50/(1+[ligand]/Kd), [ligand]=1.6 nM, read-out: calculated Ki): ~5.85
pIC50 (in-house radioligand-binding assay): 5.57
